We go through 55 compounds from patent US6730792B2, “β3 adrenergic agonists” (Eli Lilly and Company, priority 2000, dated 2004).

T1 sequence (P13945 whole entry): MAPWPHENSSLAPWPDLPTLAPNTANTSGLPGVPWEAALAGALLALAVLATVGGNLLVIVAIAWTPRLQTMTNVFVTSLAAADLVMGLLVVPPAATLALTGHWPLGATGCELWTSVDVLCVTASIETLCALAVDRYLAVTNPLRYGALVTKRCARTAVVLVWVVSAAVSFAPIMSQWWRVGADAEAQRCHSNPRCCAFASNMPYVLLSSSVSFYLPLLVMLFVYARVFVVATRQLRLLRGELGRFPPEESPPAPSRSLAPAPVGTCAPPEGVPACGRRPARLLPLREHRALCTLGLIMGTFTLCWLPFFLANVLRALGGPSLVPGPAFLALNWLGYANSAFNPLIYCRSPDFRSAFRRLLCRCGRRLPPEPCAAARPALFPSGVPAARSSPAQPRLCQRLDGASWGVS

The first assay addresses T1, human β3 adrenergic receptor (Homo sapiens, UniProt P13945).
T1 construct: expressed in transfected cells; host or cells: DXB-11 Chinese hamster ovary (CHO) cell line, stably transfected (phd expression vector)
In words: whole cell receptor coupled c-AMP assay, human β3 receptor in CHO cells (EC50, Emax relative to isoproterenol). The assay is classed as cell-based. The note with it: % intrinsic activity relative to isoproterenol maximal response; average of at least 3 runs; c-AMP in transfected CHO cells. In short, it runs like this: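 Stably transfected DXB-11 CHO cells (20,000/well) were exposed to compound for 20 min at 37 °C in HBSS/HEPES buffer with 1 mM IBMX, pH 7.4. cAMP was measured by SPA. EC50 came from a four-parameter logistic fit, and Emax is the maximal response as a percentage of isoproterenol's.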
For the compound `CC(C)(Cc1ccc(Oc2ccc(S(C)(=O)=O)cc2)cc1)NC[C@H](O)COc1ccccc1-c1ccsc1.Cl` [Example 382], the “Emax (%) ± SEM” value is 32.3 ± 1.9%.

As for `CC(C)(Cc1ccc(Oc2ncccc2C#N)cc1)NC[C@H](O)COc1ccccc1-c1ccco1.Cl` [Example 416], the “Emax (%) ± SEM” value came out at 68.9 ± 6.7%. On the same count and under the same terms, then `CC(C)(Cc1ccc(Oc2ncccc2C(N)=O)cc1)NC[C@H](O)COc1ccccc1-c1cc2ccccc2o1` [Example 372], with 56.3 ± 4.8%. Turning to `CC(C)(Cc1ccc(Oc2ccc(S(C)(=O)=O)cc2)cc1)NC[C@H](O)COc1ccccc1-c1cccnc1.Cl.Cl` [Example 392], the “Emax (%) ± SEM” value is given as 17.6 ± 0.4%. For the compound `CC(C)(Cc1ccc(Oc2ccc(C(N)=O)cn2)cc1)NC[C@H](O)COc1ccccc1-c1ccncc1` [Example 374], the “Emax (%) ± SEM” value turned out to be 49.3 ± 0.3%. In the case of `Cc1ccc(-c2ccccc2OC[C@@H](O)CNC(C)(C)Cc2ccc(Oc3ncccc3C#N)cc2)s1.Cl` [Example 413], the “Emax (%) ± SEM” value was found to be 66.9 ± 9.2%. Consider `CC(C)(Cc1ccc(Oc2ncccc2C#N)cc1)NC[C@H](O)COc1c(F)cccc1-c1ccc(Cl)s1.Cl` [Example 438], for which the “Emax (%) ± SEM” value was 64.3 ± 12.4%.

Still in this assay, the particulars now being: Emax ± SEM; average of at least 3 runs except as otherwise indicated; tested as the isolated form listed.
On to `CC(C)(Cc1ccc(Oc2ncccc2C(N)=O)cc1)NC[C@H](O)COc1ccccc1-c1ncco1.Cl` [Example 308], for which the “Emax (%) ± SEM” value is reported as 71.2 ± 5.8%. Take `CC(C)(Cc1ccc(Oc2ccc(C(N)=O)o2)cc1)NC[C@H](O)COc1ccccc1-c1nccs1.O=C(O)C(F)(F)F` [Example 327]: the “Emax (%) ± SEM” value is 56.7 ± 2.1%.

Staying with this assay, now noted: Emax ± standard error of the mean; average of at least 3 runs except where n = 1; compound tested in the isolated form listed.
With `CC(C)(Cc1ccc(Oc2ccccc2C#N)cc1)NC[C@H](O)COc1ccccc1-c1ccno1.O=C(O)C(F)(F)F` [Example 212], the “Emax (%) ± SEM” value came out at 68.9 ± 3.1%. Still for that read-out and setting: the same measure for `CC(C)(Cc1ccc(Oc2ccc(S(N)(=O)=O)cc2F)cc1)NC[C@H](O)COc1ccccc1-c1cccs1.O=C(O)C(F)(F)F` [Example 225]: 59.5 ± 4.3%; for `CC(C)(Cc1ccc(Oc2cccnc2C(N)=O)cc1)NC[C@H](O)COc1ccccc1-c1ccns1.O=C(O)C(F)(F)F` [Example 199]: 83.0 ± 4.0%; for `CC(C)(Cc1ccc(Oc2ccc(C#N)cn2)cc1)NC[C@H](O)COc1ccccc1-c1ccno1` [Example 7]: 48.8 ± 2.5%. On the same count and under the same terms, the same measure for `CC(C)(Cc1ccc(Oc2ncccc2C#N)cc1)NC[C@H](O)COc1ccccc1-c1cccs1.Cl` [Example 51]: 74.1 ± 3.3%; for `CCOC(=O)c1cccnc1Oc1ccc(CC(C)(C)NC[C@H](O)COc2ccccc2-c2cccs2)cc1` [Example 107]: 84.3 ± 5.3%; for `CC(C)(Cc1ccc(Oc2ccc(C#N)cn2)cc1)NC[C@H](O)COc1ccccc1-c1cccs1` [Example 5]: 66.1 ± 4.8%. On the same count and under the same terms, the same measure for `CC(C)(Cc1ccc(Oc2cccnc2C#N)cc1)NC[C@H](O)COc1ccccc1-c1nccs1.O=C(O)C(F)(F)F` [Example 144]: 55.9 ± 1.1%. Take `COC(=O)c1ccc(Oc2ccc(CC(C)(C)NC[C@H](O)COc3ccccc3-c3ccno3)cc2)nc1` [Example 117]: the “Emax (%) ± SEM” value was 32.2 ± 6.5%. Still for that read-out and setting: then `CC(C)(Cc1ccc(Oc2ccccc2C(N)=O)cc1)NC[C@H](O)COc1ccccc1-n1cccc1.Cl` [Example 270], with 56.4 ± 8.3%; and `CC(C)(Cc1ccc(Oc2ccccn2)cc1)NC[C@H](O)COc1ccccc1-c1ccno1.O=C(O)C(F)(F)F` [Example 2], with 43.6 ± 9.7%. Regarding `CC(C)(Cc1ccc(Oc2cnccn2)cc1)NC[C@H](O)COc1ccccc1-c1nccs1.O=C(O)C(F)(F)F` [Example 154], the “Emax (%) ± SEM” value turned out to be 61.1 ± 7.7%. With `CC(C)(Cc1ccc(Oc2ccc(C(N)=O)cn2)cc1)NC[C@H](O)COc1ccccc1-c1ncco1` [Example 45], the “Emax (%) ± SEM” value was found to be 66.5 ± 3.9%. Still for that read-out and setting: then `CC(C)(Cc1ccc(Oc2ccc(C(N)=O)cc2)cc1)NC[C@H](O)COc1ccccc1-c1nccs1.O=C(O)C(F)(F)F` [Example 124], with 46.7 ± 3.6%. `CC(C)(Cc1ccc(Oc2cccc(Cl)n2)cc1)NC[C@H](O)COc1ccccc1-c1ccno1.O=C(O)C(F)(F)F` [Example 177]: the “Emax (%) ± SEM” value is listed as 46.0 ± 1.7%. `CC(C)(Cc1ccc(Oc2ncccc2C(N)=O)cc1)NC[C@H](O)COc1cc(Cl)ccc1-c1nnco1` [Example 87]: the “Emax (%) ± SEM” value was 14.2 n = 1%. On to `CC(C)(Cc1ccc(Oc2ccccc2C(N)=O)cc1)NC[C@H](O)COc1ccc(F)cc1-c1cccs1.O=C(O)C(F)(F)F` [Example 227], for which the “Emax (%) ± SEM” value is listed as 51.3 ± 10.8%. For `CC(C)(Cc1ccc(Oc2ccc(C#N)cn2)cc1)NC[C@H](O)COc1ccccc1-c1cnco1.Cl` [Example 13], the “Emax (%) ± SEM” value was 54.8 ± 1.7%. For the compound `Cn1ccc(-c2ccccc2OC[C@@H](O)CNC(C)(C)Cc2ccc(Oc3ncccc3C(N)=O)cc2)n1` [Example 15], the “Emax (%) ± SEM” value is given as 70.9 ± 3.0%.

Take `CC(C)(Cc1ccc(Oc2ccc(C(N)=O)cc2Cl)cc1)NC[C@H](O)COc1ccccc1-c1cscn1.Cl` [Example 253]: the “Emax (%) ± SEM” value is listed as 37.6 ± 2.7%. As for `Cn1ccc(-c2ccccc2OC[C@@H](O)CNC(C)(C)Cc2ccc(Oc3ncccc3C#N)cc2)n1` [Example 4], the “Emax (%) ± SEM” value amounted to 55.0 ± 1.3%. The same measure, in the same setting: then `CC(C)(Cc1ccc(Oc2ccc(C(F)(F)F)cc2Cl)cc1)NC[C@H](O)COc1ccccc1-c1ccno1.O=C(O)C(F)(F)F` [Example 172], with 40.4 ± 8.8%; and `CC(C)(Cc1ccc(Oc2ccc(C#N)o2)cc1)NC[C@H](O)COc1ccccc1-c1cscn1.Cl` [Example 260], with 38.2 ± 2.0%. Take `CCOC(=O)c1cccnc1Oc1ccc(CC(C)(C)NC[C@H](O)COc2ccccc2-c2ccn[nH]2)cc1` [Example 111]: the “Emax (%) ± SEM” value was 23.6 n = 1%. On to `CC(C)(Cc1ccc(Oc2ccc(C(N)=O)cc2)cc1)NC[C@H](O)COc1ccccc1-n1cccc1.Cl` [Example 269], for which the “Emax (%) ± SEM” value is listed as 41.3 ± 4.2%. Take `CC(C)(Cc1ccc(Oc2ncc(C(F)(F)F)cc2Cl)cc1)NC[C@H](O)COc1ccccc1-c1ccno1.O=C(O)C(F)(F)F` [Example 160]: the “Emax (%) ± SEM” value came to 56.3 ± 1.4%. On to `CC(C)(Cc1ccc(Oc2ccc(S(C)(=O)=O)cc2)cc1)NC[C@H](O)COc1ccccc1-n1cccc1.Cl` [Example 265], for which the “Emax (%) ± SEM” value was 42.7 ± 9.4%. `CC(C)(Cc1ccc(Oc2ncccc2C(N)=O)cc1)NC[C@H](O)COc1ccccc1N1CCCCC1.Cl.Cl` [Example 79]: the “Emax (%) ± SEM” value is 21.3 ± 3.3%. For `CC(C)(Cc1ccc(Oc2ncccc2Cl)cc1)NC[C@H](O)COc1ccccc1-c1cccs1.O=C(O)C(F)(F)F` [Example 178], the “Emax (%) ± SEM” value worked out at 64.4 ± 5.2%. Take `CC(C)(Cc1ccc(Oc2ncccc2C#N)cc1)NC[C@H](O)COc1ccccc1N1CCCC1=O` [Example 58]: the “Emax (%) ± SEM” value came to 21.0 ± 3.4%. With `CC(C)(Cc1ccc(Oc2ccc(S(C)(=O)=O)cc2)cc1)NC[C@H](O)COc1ccccc1-c1ccon1.Cl` [Example 134], the “Emax (%) ± SEM” value stood at 47.7 ± 6.5%. Take `Cn1nccc1-c1ccccc1OC[C@@H](O)CNC(C)(C)Cc1ccc(Oc2ccc(S(C)(=O)=O)cc2)cc1` [Example 127]: the “Emax (%) ± SEM” value is given as less than 10%. With `CC(C)(Cc1ccc(Oc2ccc(C(N)=O)nc2)cc1)NC[C@H](O)COc1ccccc1-c1ccns1.O=C(O)C(F)(F)F` [Example 207], the “Emax (%) ± SEM” value came to 70.5 ± 4.9%. With `CC(C)(Cc1ccc(Oc2ccc(C(N)=O)cn2)cc1)NC[C@H](O)COc1ccccc1-c1cc2ccccc2[nH]1` [Example 20], the “Emax (%) ± SEM” value amounted to 30.4 ± 2.5%. On the same count and under the same terms, then `CC(C)(Cc1ccc(Oc2ccc(C(F)(F)F)cn2)cc1)NC[C@H](O)COc1ccccc1-c1cccs1.O=C(O)C(F)(F)F` [Example 193], with 73.5 ± 3.2%; and `CC(C)(Cc1ccc(Oc2ccc(C#N)cc2F)cc1)NC[C@H](O)COc1ccccc1-c1ccno1.O=C(O)C(F)(F)F` [Example 189], with 35.1 ± 5.2%; and `CC(C)(Cc1ccc(Oc2ncccc2C(N)=O)cc1)NC[C@H](O)COc1ccccc1-c1nnco1` [Example 86], with 64.6 ± 3.3%. Still for that read-out and setting: then `CC(C)(Cc1ccc(Oc2ncccc2C(N)=O)cc1)NC[C@H](O)COc1ccc(-c2ccno2)cc1` [Example 94], with less than 10%; and `CC(C)(Cc1ccc(Oc2cccnc2C(N)=O)cc1)NC[C@H](O)COc1ccccc1-c1nccs1.O=C(O)C(F)(F)F` [Example 197], with 67.7 ± 2.7%. Take `CC(C)(Cc1ccc(Oc2ccc(S(C)(=O)=O)cc2F)cc1)NC[C@H](O)COc1ccccc1-c1cccs1.O=C(O)C(F)(F)F` [Example 223]: the “Emax (%) ± SEM” value is recorded as 63.7 ± 3.1%. On the same count and under the same terms, then `CC(C)(Cc1ccc(Oc2cnccn2)cc1)NC[C@H](O)COc1ccccc1-c1ccno1.O=C(O)C(F)(F)F` [Example 155], with 46.6 ± 4.2%; and `CC(C)(Cc1ccc(Oc2ncccc2C(N)=O)cc1)NC[C@H](O)COc1ccccc1-c1nccs1.Cl` [Example 71], with 65.6 ± 1.3%.

In the case of `CC(C)(Cc1ccc(Oc2ncccc2C#N)cc1)NC[C@H](O)COc1ccc(F)cc1-c1cccs1.O=C(O)C(=O)O` [Example 63], the “Emax (%) ± SEM” value is recorded as 52.6 ± 2.5%. `CC(C)(Cc1ccc(Oc2ccc(C(N)=O)cn2)cc1)NC[C@H](O)COc1ccccc1-c1ccoc1.Cl` [Example 43]: the “Emax (%) ± SEM” value turned out to be 61.9 ± 2.5%.

As to `CC(C)(Cc1ccccc1-c1ccc(C#N)cc1)NC[C@H](O)COc1ccccc1-c1ccno1.Cl` [Example 290], the “Emax (%) ± SEM” value stood at 22.7 ± 1.7%. Consider `CC(C)(Cc1ccc(Oc2cccnc2C#N)cc1)NC[C@H](O)COc1ccccc1-c1ccns1.O=C(O)C(F)(F)F` [Example 147], for which the “Emax (%) ± SEM” value is on record as 58.9 ± 3.6%.
